From patent US6107316A, “Method for treating protozoal infections” (priority 1998, dated 2000)
Converted amounts (≈) assume the structure as drawn.

Columns and labels:
Tetrahymena pyriformis = assay: in vitro growth inhibitory activity against the ciliate Tetrahymena pyriformis; format: cell-based, Tetrahymena pyriformis (ATCC strain 30005); settings: 24 hours, 25° C., read-out: EC50 Tetrahymena pyriformis
Method: Compounds were evaluated for in vitro growth inhibitory activity against the ciliate Tetrahymena pyriformis, which was used as an indicator organism for the Apicomplexia since by several criteria the ciliates and Apicomplexa are closely related (Edlind T. D. et al., Mol. Phylogenet. Evol. vol. 5, pp. 359-367, 1996). T. pyriformis (ATCC strain 30005) was grown in 1 ml ATCC medium 357 at 25° C. in 4 ml polyallomer culture tubes without shaking. Compounds were dissolved in dimethylsufoxide (DMSO) and added to the cultures (containing 3,000 cells/ml) such that the final DMSO concentration was 0.1-0.3%. […] Parasitol. vol. 84, pp. 355-370, 1996) and Cryptosporidium parvum (Arrowood et al., FEMS Microbial. Lett., vol. 136, pp. 245-249, 1996) were tested for comparison.

Giardia lamblia = assay: in vitro growth inhibitory activity against Giardia lamblia; format: cell-based; settings: Giardia duodenalis; concentration required to inhibit growth by 50%
Method: 35, pp. 2198-2202 (1991). EC50 values for test compounds, expressed in parts per million (ppm), were calculated from dose response curves and are presented in Table 4. As used herein, the terminology "EC50" means the concentration of test compound required to inhibit growth by 50% are compared to a control lacking the test compound. Metronidazole was included as a standard in the tests for comparative purposes.

Leishmania major = assay: in vitro growth inhibitory activity against L. major promastigotes; format: cell-based
Source text: 35, pp. 2198-2202 (1991).

[1] = tested on: Encephalitozoon (Septata) intestinalis; assay: growth inhibitory activity against E. intestinalis grown on Vero cells (spore count); format: cell-based; settings: 336 h, 0.1 μg/ml, spore number after 2 weeks, read-out: Growth (% of control)
Method: Compounds 2, 10 and 15 were tested for i,7 vitro growth inhibitory activity against E. intestinalis, grown on African green monkey kidney cells (Vero cells). Vero cells were grown in 25-cm^2 culture flasks at 37° C. in a humidified 5% carbon dioxide incubator. Cultures were maintained in minimal essential medium (Gibco BRL, Gaithersburg, Md., U.S.A.), supplemented with L-glutamine, Earle's salts, 5% heat-inactivated foetal calf serum (Hyclone Labs, Inc., U.S.A.), fungizone (2 μg/ml, Gibco BRL) and gentamicin (50 μg/ml, Gibco BRL). E. intestinalis spores were collected from the supernatant of an infected Vero cell culture and were used to infect normal cells to produce a fresh spore preparation for growth inhibition tests.
Growth inhibition tests were performed in 24-well culture plates. One ml of Vero cells (5×10^4 cells per ml) was placed in each well and the cells incubated for 12-15 hours at 37° C. The supernatant medium was then removed and replaced with 1 ml of medium containing 1.5-2.0×10^4 E. intestinalis spores per ml along with 1 μl of test compound dissolved in dimethylsulfoxide (DMSO) or DMSO alone for the control treatments without test compound. The plates were incubated at 37° C. and the medium was changed every 72 h along with fresh test compound in DMSO or DMSO alone (controls). After 2 weeks the supernatant was transferred from each well to a microcentiifuge tube, then concentrated by centrifugation with resuspension of the resulting E. intestinalis spore pellet in 300-500 μl fresh medium. The spore number in each sample was then determined by counting in a hemocytometer. The results in Table 11 show the effects of the test compounds on the number of spores and are expressed as a percentage of the spore number in the control treatment without test compound.

Entamoeba histolytica = assay: in vitro growth inhibitory activity against E. histolytica; format: cell-based
Source text: 35, pp. 2198-2202 (1991). Metronidazole was included as a standard in the test for comparative purposes.

Toxoplasma gondii [2] = assay: growth inhibition of T. gondii in L929 host cells ([3H]-uracil incorporation); format: cell-based; settings: L929 host cells; for inhibition at 5 µg/mL: Toxoplasma gondii, read-out: % Inhibition
Method: (§1) Compounds were tested for it vitro growth inhibitory activity against Toxoplasma gondii replication in L929 (L929-ATCC CCL 1, mouse connective tissue) or HFF (human foreskin fibroblast) host cells using the [^3 H]-uracil incorporation technique as follows. Host cells were grown in 96-well flat-bottom microtiter plates at 37° C in a 5% carbon dioxide environment in modified Eagle's medium containing penicillin, streptomycin and 10% fetal equine serum. Wells containing a homogeneous confluent monolayer of host cells were infected with T. gondii tachyzoites at a ratio of 3 parasites per cell (approximately 6×10^4 tachyzoites per well containing 100 μl of medium). […] Two hours post infection, the cultures were washed to remove free parasites and the various dilutions of test compound were added. Cells were subsequently collected at 24, 48 and 72 hours. Four hours prior to each harvesting 50 Al of [^3 H]-uracil (1 μCi) was added. Cells were collected using a cell harvester and incorporated radioactivity was measured using a scintillation counter. […]

[3] = toxicity towards MDBKF5D2 host cells (MTS); settings: bovine, mdbkf5d2 cells, Cytotoxicity (percent toxicity), 100 μM
Method: (§2) Compounds were tested for in vitro growth inhibitory activity against C. parvum grown in host MDBKF5D2 cells and for toxicity towards the host cells as follows. […] To test for toxicity towards the host cells, the media containing test compound (200 μl) were introduced into two wells of a 96 well microtiter plate containing confluent MDBKF5D2 cell monolayers and two wells without monolayers, and incubated at 37° C. in an 8% carbon dioxide environment. After 48 hours, the tetrazolium salt MTS (Owen's solution) and phenazine methosulfate were added to each well at concentrations of 333 μg/ml and 25 μM, respectively. The plate was returned to the incubator in the dark to develop for 2 hours, then 100 μl of each supernatant was transferred to a new microtiter plate and read spectrophotometrically in a plate reader at a wavelength of 490 nm. Percent toxicity was calculated by subtracting the mean optical density (OD) of the drug supernatants from the OD of medium control supernatants (no drug), dividing by the OD of the medium control, and multiplying by 100. To test for growth inhibitory activity against C. parvum, 3×10^4 oocysts per well were incubated in mentioned concentrations of each drug at 37° C. (8% CO2) on confluent MDBKF5D2 cell monolayers in 96 well microtiter plates. After 48 hours, the level of infection in each well was determined by means of an immunofluorescence assay. Percent inhibition of growth was calculated by subtracting the mean parasite count in the wells containing test compound from the mean parasite count in the medium control wells (no test compound), dividing by the mean parasite count in the medium control wells, and multiplying by 100. Paromomycin was included in the test as a standard.

MDBKF5D2 cells = assay: toxicity towards MDBKF5D2 host cells (MTS); settings: 48 hours, 2880 min
Method: as §2

Toxoplasma gondii [4] = assay: growth inhibition of T. gondii in HFF host cells ([3H]-uracil incorporation); format: cell-based; settings: HFF host cells
Method: as §1

[5] = cytotoxicity towards L929 host cells (Cell Titer 96); settings: mouse, % Inhibition of host cell growth (values in parenthesis)
Method: (§3) Cytotoxicity of the test compounds towards host cells was determined using the Cell Titer 96™ it (Promega Corporation, Madison, Wis.) as follows. Cells were seeded at a concentration of 5×10^3 cells per well containing 100 μl of medium in 96-well flat-bottom microtiter plates and incubated at 37° C. in a 5% carbon dioxide environment for 4 hours. Dilutions of the test compounds prepared as described above were then added, and incubation continued for 24, 48 or 72 hours. Four hours before each of these time points the growth medium containing test compound was replaced with 100 μl of fresh medium followed by addition of 16 μl of the kit dye solution. After incubation at 37° C. for another 4 hours, 100 μl of the kit solubilization/stop solution was added to each well, the contents of the wells were mixed and the plates kept 1 hour at room temperature. The plates were then read spectrophotometrically in a plate reader at a wavelength of 570 nm. […] Atovaquone was included in the test as a standard.

[6] = cytotoxicity towards HFF host cells (Cell Titer 96); settings: human, % Inhibition of host cell growth (values in parenthesis)
Method: as §3

Cryptosporidium parvum = assay: growth inhibitory activity against C. parvum in host MDBKF5D2 cells (immunofluorescence); format: cell-based; settings: for % Inhibition: 48 hours
Method: as §2

SMILES	EC50 (Tetrahymena pyriformis)	EC50 (Giardia lamblia)	EC50 (Leishmania major)	activity at 0.1 µg/mL [1]	EC50 (Entamoeba histolytica)	% Inhibition (Toxoplasma gondii [2]; 0.5 μg/ml, 24 hours)	% Inhibition (Toxoplasma gondii [2]; 0.5 μg/ml, 48 hours)	% Inhibition (Toxoplasma gondii [2]; 0.5 μg/ml, 72 hours)	% Inhibition (Toxoplasma gondii [2]; 5.0 μg/ml, 24 hours)	Cytotoxicity (percent toxicity) (MDBKF5D2 cells; 0.1 μM)	Cytotoxicity (percent toxicity) (MDBKF5D2 cells; 1.0 μM)	Cytotoxicity (percent toxicity) (MDBKF5D2 cells; 10 μM)	% Inhibition (Toxoplasma gondii [4]; 0.5 μg/ml, 48 hours)	% Inhibition (Toxoplasma gondii [4]; 0.5 μg/ml, 72 hours)	% Inhibition (Cryptosporidium parvum; 10 μM)	other results
CCC(C)(NC(=O)c1cc(Cl)cc(C=NOC)c1)C(=O)CCl (centres unmarked) [Compound 2]	< 0.01 mg/L	0.03 mg/L (≈ 0.0869 µM)	0.03 mg/L (≈ 0.0869 µM)	29%	12 mg/L (≈ 34.8 µM)	–	–	–	–	–	–	–	–	–	–	–
CCC(C)(NC(=O)c1cc(C)cc(Br)c1)C(=O)CCl (centres unmarked) [Compound 3]	< 0.01 mg/L	0.06 mg/L (≈ 0.173 µM)	0.2 mg/L (≈ 0.577 µM)	–	16 mg/L (≈ 46.2 µM)	–	–	–	–	–	–	–	–	–	–	–
CCC(C)(NC(=O)c1cc(Cl)cc(Cl)c1)C(=O)CCl (centres unmarked) [Compound 5]	0.003 mg/L (≈ 0.0093 µM)	0.02 mg/L (≈ 0.062 µM)	0.06 mg/L (≈ 0.186 µM)	–	–	39.2%	64.7%	44.1%	3.3%	18.8%	6.7%	31.4%	97.6%	80.2%	34.1%	inhibition at 5 µg/mL (Toxoplasma gondii [2]; L929, 48 h, 5.0 μg/ml, 48 hours): 69.2%; inhibition at 5 µg/mL (Toxoplasma gondii [2]; L929, 72 h, 5.0 μg/ml, 72 hours): 84%; cytotoxicity at 48 h, 100 µM [3]: 72.6%; inhibition at 0.5 µg/mL (Toxoplasma gondii [4]; Toxoplasma gondii, 24 h, 0.5 μg/ml, 24 hours, read-out: % Inhibition): 55.9%; inhibition at 5 µg/mL (Toxoplasma gondii [4]; Toxoplasma gondii, 24 h, 5.0 μg/ml, 24 hours, read-out: % Inhibition): 89%; inhibition at 5 µg/mL (Toxoplasma gondii [4]; Toxoplasma gondii, 48 h, 5.0 μg/ml, 48 hours, read-out: % Inhibition): 100%; inhibition at 5 µg/mL (Toxoplasma gondii [4]; Toxoplasma gondii, 72 h, 5.0 μg/ml, 72 hours, read-out: % Inhibition): 99.6%; inhibition at 48 h ([5]; L929, 0.5 μg/ml): 0%; inhibition at 72 h ([5]; L929, 0.5 μg/ml): 0%; inhibition at 48 h ([5]; L929, 5.0 μg/ml): 66.8%; inhibition at 72 h ([5]; L929, 5.0 μg/ml): 91.2%; inhibition at 48 h ([6]; 0.5 μg/ml, 48 hours): 5.3%; inhibition at 24 h ([6]; 5.0 μg/ml, 24 hours): 8%; inhibition at 72 h ([6]; 5.0 μg/ml, 72 hours): 39.6%; inhibition at 0.1 µM (Cryptosporidium parvum; Cryptosporidium parvum, 48 h, 0.1 μM): 10%; inhibition at 1 µM (Cryptosporidium parvum; Cryptosporidium parvum, 48 h, 1.0 μM): 17.4%
CCC(C)(NC(=O)c1cc(Cl)cc(Cl)c1)C(=O)CCl (centres unmarked) [Compound 13]	–	–	–	–	–	11.6%	33.2%	0%	11.4%	0%	2.4%	4.3%	28.1%	0%	15.7%	% Inhibition (Toxoplasma gondii [2]; 5.0 μg/ml, 48 hours): 83.9%; % Inhibition (Toxoplasma gondii [2]; 5.0 μg/ml, 72 hours): 88.5%; Cytotoxicity (percent toxicity) (MDBKF5D2 cells; 100 μM): 54.3%; % Inhibition (Toxoplasma gondii [4]; 0.5 μg/ml, 24 hours): 72.3%; % Inhibition (Toxoplasma gondii [4]; 5.0 μg/ml, 24 hours): 93.0%; % Inhibition (Toxoplasma gondii [4]; 5.0 μg/ml, 48 hours): 98.2%; % Inhibition (Toxoplasma gondii [4]; 5.0 μg/ml, 72 hours): 97.8%; % Inhibition (Cryptosporidium parvum; 0.1 μM): 9.9%; % Inhibition (Cryptosporidium parvum; 1.0 μM): 12.5%; inhibition at 100 µM (Cryptosporidium parvum; Cryptosporidium parvum, 48 h, 100 μM): 87.5%
CCC(C)(NC(=O)c1cncc(Br)c1)C(=O)CCl (centres unmarked) [Compound 15]	< 0.01 mg/L	0.2 mg/L (≈ 0.599 µM)	0.7 mg/L (≈ 2.1 µM)	13%	20 mg/L (≈ 59.9 µM)	–	–	–	–	–	–	–	–	–	–	–
Cc1ncc([N+](=O)[O-])n1CCO [Metronidazole, reference compound]	–	0.7 mg/L (≈ 4.09 µM)	–	–	0.5 mg/L (≈ 2.92 µM)	–	–	–	–	–	–	–	–	–	–	–
